In US8309068B2, “Isolated polypeptides and methods of improving muscle strength” (Myostin Therapeutics Pty Ltd., priority 2006, dated 2012):
Where no end group is shown, it is not given here.

How the values were obtained:
C2C12 myoblasts = experiment: C2C12 myoblast proliferation assay (methylene blue endpoint); format: cell-based, murine
Procedure: A polypeptide of the invention, or a fragment, variant or derivative thereof has the biological function of antagonising myostatin activity. To determine whether a polypeptide of the invention, or a fragment, variant or derivative thereof, is able to antagonise myostatin activity, such activity can be tested by growing myoblasts in the presence or absence (control) of a candidate polypeptide of the invention. […]
(§1) The myoblast proliferation assay was carried out in uncoated 96-well microtitre plates. C2C12 cultures were seeded at 1000 cells/well. Following a 16-hour attachment period, test media containing either recombinant wild type myostatin or different myostatin antagonists were added and cells were incubated for a further 48 or 72 hour period. For competition assay, wild type myostatin was competed with different concentrations of myostatin antagonists prior to the addition into the media. After the incubation period, proliferation was assessed using methylene blue photometric endpoint assay as previously described (Thomas et al, 2000).

myostatin = experiment: C2C12 myoblast proliferation competition assay: wild type myostatin competed with antagonists; format: cell-based; conditions: antagonist 1, 5 and 10 μg/ml; myostatin 2.25 μg/ml
Procedure: as §1, with “[…] C2C12 myoblasts were grown in Dulbecco's modified eagle medium according to the standard techniques (Thomas et al, 2000). The” for “The”

[1] = system: Human skeletal muscle myoblasts; experiment: Human myoblast proliferation assay; format: cell-based; conditions: 1, 5 or 10 μg/ml; 144 hours
Procedure: Human skeletal muscle myoblasts (Cambrex, USA) or primary ovine myoblasts were grown in Dulbecco's Modified Eagle Medium containing 20% FBS, 10% Horse serum and 0.5% chicken embryo extract according to the standard techniques. The myoblast proliferation assay was carried out in uncoated 96-well microtitre plates. Cell cultures were seeded at 2000 cells/well. Following a 24-hour attachment period, test media supplemented with 5% FCS containing either buffer as a control or different myostatin antagonists (300, 310 or 320) were added at 1, 5 and 10 μg/ml and cells were incubated for a further 144 hour period (for human cells) or 48 hours (for ovine cells). After the incubation period, proliferation was assessed using methylene blue photometric endpoint assay as previously described (Thomas et al, 2000).

Sixteen month old mice = experiment: In vivo trial in sixteen month old mice (sarcopenic muscle, grip strength)
Procedure: An animal trial was conducted to assess the effects of myostatin antagonist 300 in improving muscle function. Sixteen month old mice were divided into two groups of ten. While the control group received saline subcutaneous (SC) injections, the other group received myostatin antagonist 300 SC at 6 μg/gram of BW three times a week for six weeks. The functional improvement of sarcopenic muscle was assessed by measuring grip strength of mice at the end of trial. Grip strength was measured in Newtons.

[2] = system: skin biopsy wound in C56b1/6 mice; experiment: In vivo skin biopsy trial; conditions: 4 mm biopsy punch; 6 μg/g SC day 1, 3, 5 and 7; vs saline, particularly later time points
Procedure: C56b1/6 mice at ˜10 months of age were anesthetized, the skin at the back of the neck was shaved, and two wounds made on the skin with a 4 mm biopsy punch. The mice were injected subcutaneously with either saline or 300 myostatin antagonist at 6 μg/g of body weight at day 1, 3, 5 and 7 after injury. The mice were allowed to heal for 5, 7, 14, 21 and 28 days, after which they were culled and the skin processed for histology.
For the histology, skin samples were fixed in 10% formalin, embedded and mounted in paraffin and stained with Masson's Trichrome stain. The sections were analysed for the size of wound area for each day following the treatments, and the values plotted.

p-FoxO1 = experiment: In vitro cancer cachexia trial: p-FoxO1 Western blot in C2C12 myotubes; format: cell-based, murine; conditions: with myostatin 6 μg/mL; tested at 30, 60, 90 or 120 μg/mL; 24 hours
Procedure: C2C12 cells were differentiated for 72 hours in differentiation media (DMEM+2% HS). Following this period of differentiation the myotubes were tested with recombinant myostatin at 6 μg/mL or a combination of both myostatin and 300 recombinant protein at 30, 60, 90 or 120 μg/mL for further 24 hours to determine if 300 can rescue myostatin-mediated muscle wasting in vitro. Gene expression changes of intermediate signalling molecules critical in myostatin-mediated cachexia were analysed. Therefore, protein was isolated from cells and Western blot analysis was performed to measure protein expression levels for p-FoxO1, which we have shown to be a critical signalling intermediates in Myostatin-mediated cachexia (McFarlane et al 2006).

[3] = system: C57B mice injected with Dexamethasone; experiment: In vivo cachexia trial (Dexamethasone-induced)
Procedure: A study of chronic cachexia was designed whereby C57B mice, 4 weeks of age, were injected with the glucocorticoid drug Dexamethasone daily at a concentration of 1 mg/kg body weight. Three treatment groups were designed: 5 mice receiving daily injections of saline, 5 mice receiving daily injections of Dexamethasone and 5 mice receiving daily injections of Dexamethasone plus 300 antagonist at a concentration of 6μg/g body weight. Body weight of the mice was recorded daily and monitored closely for signs of cachexia. Food and water consumption was recorded to ensure that loss in body weight was not due to a loss of appetite or thirst. Body weights, fat-pad weights, and MyoD and Pax7 expression were assessed.

Wild type mice = experiment: In vivo sarcopenia trial, 10 month administration in wild type mice
Procedure: Wild type mice (32 mice approx. 4-5 months of age) were injected subcutaneously fortnightly or monthly with 300 (6 μg/g body weight) or saline for a period of 10 month. Muscle strength was assessed using a grip strength apparatus (MK-380S, Muromachi; Tokyo, Japan) at the end of the trial. The maximum force exerted by a mouse while being pulled backward by the tail is recorded in Newtons. The mean of three grip tests for each mouse was calculated and the mean maximal force per group was determined.

## myostatin antagonist 300: recombinant peptide, amino acids 267-300 of bovine myostatin, with N terminal and C terminal tag (SEQ ID NO: 6) (DFGLDCDEHSTESRCCRYPLTVDFEAFGWDWIIA; cysteine pairing not given here; also: N- and C-terminal tags; listed as Homo sapiens)
C2C12 myoblasts; 1 μg/ml or 5 μg/ml over 48 or 72 hours
  proliferation capacity of myoblasts compared to control: significantly enhanced
C2C12 myoblasts; 48 hour time point
  concentration at which the highest myoblast proliferation rate was observed: 5 µg/mL
myostatin
  rescue of the proliferation-inhibiting effects of myostatin on myoblasts: rescued to levels similar to those observed in the positive control
[1]
  proliferation capacity of human myoblasts compared to control: significantly enhanced
Sixteen month old mice; 16 month old mice, 6 week treatment, observation, result not shown
  body fat compared with saline treated controls: reduced the amount of subcutaneous fat including the inguinal fat pad
Sixteen month old mice; aged mice, 6 μg/g BW SC three times a week, six week period
  average percent change in grip strength: highly significant increase
Sixteen month old mice; aged mice, day 0 and day 42, 6 μg/g BW SC three times a week
  grip strength at the beginning and end of the trial: significantly increased
[2]
  wound area: smaller wound area
p-FoxO1
  concentration giving maximal rescue of p-FoxO1 expression: 90 µg/mL
[3]; Dexamethasone and 300, right gastrocnemius, p<0.01
  Pax7 expression (Western blot): significant up-regulation (rescue)
[3]; Dexamethasone and 300, right gastrocnemius, p<0.05
  MyoD expression (Western blot): significant up-regulation (rescue)
[3]; Dexamethasone plus 300
  increase in left inguinal fat-pad weight: 33.2%
  increase in left retroperitoneal fat-pad weight: 23.3%
  increase in right inguinal fat-pad weight: 39%
  increase in right retroperitoneal fat-pad weight: 39.2%
[3]; co-treatment Dexamethasone 1 mg/kg and 300 6 μg/g daily
  average body weight loss: smaller average body weight loss
Wild type mice; 6 μg/g SC fortnightly for 10 month, data not shown
  increase of muscle function, fortnightly compared with monthly application: equally effective
Wild type mice; 6 μg/g SC monthly for 10 month, p<0.01
  grip strength over saline control at the end of the trial: significant increase
